In PMC13696528, “Combined Immune‐Peptide Nanofiber with HSP70/AKT/mTOR Axis Blockade Enhances Photothermal Immunotherapy, Inhibiting Tumor Growth and Recurrence” (Advanced Science, 2026):

What was measured:
[1] = system: CT26 cells; assay: Colony formation assay after PTIT; format: cell-based, mouse; conditions: PSP@IR-CF3 + NIR plus VER-155008 (0.2 μM) or Rapa (10 nM), 14 days, n = 3
Description: CT26 cells were harvested and prepared as a single-cell suspension. […] Following the indicated treatments, cells were cultured under standard conditions (37 °C, 5% CO₂) for 14 days until visible colonies had formed.
The culture medium was then removed, and the cells were gently washed with PBS. Colonies were fixed with 4% paraformaldehyde for 10–15 min and stained with crystal violet for 10–20 min. Excess dye was removed by washing with distilled water, and the plates were air-dried. Colonies were quantified using ImageJ software (RRID:SCR_003070).

[2] = system: CT26-Luc tumor-bearing mice; assay: In vivo recurrence study with HSP70 inhibition; parameters: species or system mouse; conditions: combined with PTIT (PSP@IR-CF3 + NIR), VER-155008 20 mg kg⁻¹ d⁻¹ i.p. 7 days, n = 10, 28 days
Description: CT26-Luc cells were cultured under standard conditions and harvested during the logarithmic growth phase. BALB/c mice were subcutaneously inoculated with CT26-Luc cells to establish tumor-bearing models.
In the combination group, the HSP70 inhibitor VER-155008 was administered via intraperitoneal injection at a dose of 20 mg kg⁻¹ d⁻¹ for 7 consecutive days beginning immediately after NIR irradiation. Tumor growth was monitored regularly, and mice were followed for 28 days after treatment to evaluate tumor recurrence. Tumor recurrence was defined as the reappearance of measurable tumor growth at the original treatment site following initial tumor regression.

| Compound | colony formation and clonogenic recovery after PTIT [1] | recurrent tumors [2] |
| --- | --- | --- |
| N#Cc1ccc(COC[C@H]2O[C@@H](n3c(NCc4ccc(Cl)c(Cl)c4)nc4c(N)ncnc43)[C@H](O)[C@@H]2O)cc1 [VER-155008] | reduced colony formation and impaired clonogenic recovery | no recurrent tumors |
| CO[C@H]1C[C@@H]2CC[C@@H](C)[C@@](O)(O2)C(=O)C(=O)N2CCCC[C@H]2C(=O)O[C@H]([C@H](C)C[C@@H]2CC[C@@H](O)[C@H](OC)C2)CC(=O)[C@H](C)/C=C(\C)[C@@H](O)[C@@H](OC)C(=O)[C@H](C)C[C@H](C)/C=C/C=C/C=C/1C [Rapamycin, rapamycin] | reduced colony formation and impaired clonogenic recovery | – |
